Common to all, as to format: functional
Test [1] deals with SH-SY5Y. Put plainly: Neuroprotective activity in human SH-SY5Y cells assessed as reduction in H2O2-induced cell damage by measuring cell viability level at 12.5 uM by MTT assay (reference value: 67.95%).
Test [2] concerns SH-SY5Y. Put plainly: Neuroprotective activity in human SH-SY5Y cells assessed as reduction in H2O2-induced apoptosis by measuring viable cells level at 12.5 uM by annexin V-FITC and propidium iodide staining based flow cytometry (reference value: 76.7%).
The subject of test [3] is SH-SY5Y. Put plainly: Neuroprotective activity in human SH-SY5Y cells assessed as reduction in H2O2-induced apoptosis by measuring early apoptotic cells level at 12.5 uM by annexin V-FITC and propidium iodide staining based flow cytometry (reference value: 11.3%). On the set-up: scale not given: the % may be the effect or the level left.
Test [4] concerns SH-SY5Y. Put plainly: Neuroprotective activity in human SH-SY5Y cells assessed as reduction in H2O2-induced apoptosis by measuring late apoptotic cells level at 12.5 uM by annexin V-FITC and propidium iodide staining based flow cytometry (reference value: 5.26%). On the set-up: scale not given: the % may be the effect or the level left.
Test [5] concerns SH-SY5Y. Put plainly: Neuroprotective activity in human SH-SY5Y cells assessed as reduction in H2O2-induced apoptosis by measuring necrotic cells level at 12.5 uM by annexin V-FITC and propidium iodide staining based flow cytometry (reference value: 6.69%). On the set-up: scale not given: the % may be the effect or the level left.
Test [6] deals with SH-SY5Y. Description: Neuroprotective activity in human SH-SY5Y cells assessed as reduction in H2O2-induced cell damage by measuring cell viability level at 50 uM by MTT assay (reference value: 67.95%).

The values below come from ChEMBL document CHEMBL4392878, “Guaiane-Type Sesquiterpenoids from the Roots of Daphne genkwa and Evaluation of Their Neuroprotective Effects” (2019).

For the compound `CC1=C[C@@]2(O)OC(=O)C(C)=C2C[C@H]2[C@@H](C)CC[C@@]12O`, the Activity with SH-SY5Y [1] worked out at 75.64%; with SH-SY5Y [2], 87.7%; in the test with SH-SY5Y [3], 4.25%; in the test on SH-SY5Y [4], 2.7%; in the test with SH-SY5Y [5], 5.37%.
For `CC1=C(C[C@@H]2/C(=C(/C)CO)CC[C@@H]2C)C(=O)OC1`, in that order: 79.94%, 79.2%, 5.41%, 3.29% and 12.1%.
Consider `CC1=C2CC[C@H](C)[C@@H]2C[C@H]2C(=O)[C@@H]1OC[C@@]2(O)CO`, for which the Activity in the test on SH-SY5Y [1] is recorded as 79.34%; in the test on SH-SY5Y [2], 87.7%; with SH-SY5Y [3], 4.19%; with SH-SY5Y [4], 2.67%; with SH-SY5Y [5], 5.41%.
With `Cc1c(C)c2c(c(C)c1O)CCC(C)(C(=O)O)O2` (stereo unspecified) [TROLOX], the Activity with SH-SY5Y [6] was 78.65%.
